One assay deals with PAO1. The assay can be described thus: microbe, parasite or virus in culture. Type of assay: cell-based, Pseudomonas aeruginosa. The procedure:
(§1) Strains used in the study were isolates of methicillin-resistant Staphylococcus aureus (MRSA); USA300 LAC, BH1CC ([O’Neill et al., 2007]), methicillin-sensitive S. aureus (MSSA); SH1000 ([Horsburgh et al., 2002]) and BH48 ([O’Neill et al., 2007]); and Pseudomonas aeruginosa PAO1 (ATCC […]). Clinical isolates were obtained from a previous collection of isolates of infected wounds. Bacteria were grown aerobically at 37°C with shaking at 200 rpm in Brain Heart Infusion (BHI, Oxoid, Ireland). Selective media, Mannitol Salt Agar (SLS, Ireland) and MacConkey agar (SLS, Ireland), for re-isolation of bacterial strains from mixed species biofilms were used. Bolton Broth (Fannin, Ireland) supplemented with 50% bovine heparin plasma (TebuBio, UK), and 5% laked horse blood (Sigma-Aldrich, Ireland) was used to mimic in vivo conditions for static antibiofilm testing. For dynamic biofilm growth Simulated Wound Fluid (SWF) prepared as described previously with slight modification, 3% v/v fetal bovine serum in maximum recovery diluent (Merck, Ireland) was used ([Barbour et al., 2016]).
(§2) Minimum inhibitory concentration (MIC) was determined aerobically using the broth microdilution assay as recommended by the Clinical and Laboratory Standards Institute (CLSI) ([CLSI, 2018]). Briefly, 2-fold serial dilutions of the antimicrobial peptides of interest and conventional antibiotics were prepared in Mueller-Hinton broth (MHB) (Merck, Ireland) in a 96-well round bottom polypropylene plate (ThermoFisher, Ireland). Diluted bacterial suspensions in sterile PBS (Sigma, Ireland) were added to each well resulting in a final cell density of approximately 10^5 colony forming units (CFU)/mL. Microplates were incubated statically for 18 h at 37°C. In each assay, inoculated medium without antimicrobials and uninoculated medium served as growth and sterility controls, respectively. Conventional antibiotics, gentamicin (Merck, Ireland) and mupirocin (SLS, UK), were tested as comparator antimicrobials. The MIC value was defined as the lowest antimicrobial concentration showing no visible growth relative to positive (no antimicrobial agent) and negative controls (BHI alone). Experiments were conducted in triplicate, and independent replicates were performed three times to yield n = 3.

In a further assay the test system is BH1CC. Put plainly: microbe, parasite or virus in culture. Type of assay: cell-based, Staphylococcus aureus. The settings on record: 18 h. As for the experimental part: as §1, §2
Another assay deals with SH1000. The assay can be described thus: microbe, parasite or virus in culture. Type of assay: cell-based, Staphylococcus aureus. As for the experimental part: as §1, §2
In the next assay the test system is BH48. Put plainly: microbe, parasite or virus in culture. It counts as cell-based, Staphylococcus aureus. The note with it: 18 h. The procedure: as §1, §2
The next assay concerns USA300. The assay can be described thus: microbe, parasite or virus in culture. It counts as cell-based, Staphylococcus aureus. The procedure:
as §1, §2

Another assay has as its system S. aureus strains. Type of assay: cell-based, Staphylococcus aureus. The note with it: 2 MRSA and 2 MSSA strains, summed up in text. As for the experimental part: as §1
Minimum inhibitory concentration (MIC) was determined aerobically using the broth microdilution assay as recommended by the Clinical and Laboratory Standards Institute (CLSI) ([CLSI, 2018]). […]

Another assay has as its system HUVEC. The assay can be described thus: MTT cell viability. It counts as cell-based, human. The settings on record: 24 h, 37°C, 5% CO2, ethanol control.
A further assay has as its system HaCaT. The assay can be described thus: MTT cell viability. The note with it: 24 h, 37°C, 5% CO2, ethanol control. Type of assay: cell-based, human.
A further assay has as its system THP-1. It counts as cell-based, human. The settings on record: THP-1; 24 h, 37°C, 5% CO2; ethanol control. As for the experimental part: Sigma-Aldrich, Ireland). […] At 90% confluence, cells were centrifuged and diluted to a 1:5 ratio with complete RPMI. THP-1 cells were seeded in a 96 well plate at a density of 1 × 10^5 cells/mL with increasing concentrations of D-Bac8c^2,5 Leu. Cells were incubated for 24 h at 37°C with 5% CO2, 95% humidity. […] The absorbance was measured at 595 nm in a microplate spectrophotometer. Cell viability was calculated as a percentage of a control treated with PBS. Two technical replicates were performed each day on three independent days.

Where [1] appears, read: Pseudomonas aeruginosa, PAO1, MHB, about 10^5 CFU/mL, 18 h, 37°C, n = 3, read-out: MIC.
[2] abbreviates: Staphylococcus aureus, BH1CC (MRSA), MHB, about 10^5 CFU/mL, 37°C, n = 3, read-out: MIC.
The mark [3] stands for this setting: Staphylococcus aureus, SH1000 (MSSA), MHB, about 10^5 CFU/mL, 18 h, 37°C, n = 3, read-out: MIC.
The mark [4] stands for this setting: Staphylococcus aureus, BH48 (MSSA), MHB, about 10^5 CFU/mL, 37°C, n = 3, read-out: MIC.
Where [5] appears, read: Staphylococcus aureus, USA300 (MRSA), MHB, about 10^5 CFU/mL, 18 h, 37°C, n = 3, read-out: MIC.
[6] abbreviates: PAO1, MHB, about 10^5 CFU/mL, 18 h, 37°C, n = 3.
Where [7] appears, read: BH1CC (MRSA), MHB, about 10^5 CFU/mL, 37°C, n = 3.
[8] abbreviates: SH1000 (MSSA), MHB, about 10^5 CFU/mL, 18 h, 37°C, n = 3.
The mark [9] stands for this setting: BH48 (MSSA), MHB, about 10^5 CFU/mL, 37°C, n = 3.
Where [10] appears, read: USA300 (MRSA), MHB, about 10^5 CFU/mL, 18 h, 37°C, n = 3.

The structures appear in SMILES notation. Converted amounts (≈) assume the structure as drawn. Like-named read-outs stand apart in the source and are kept apart here. Residues, ends and D or L forms follow the SMILES beside them. Where only a bound is given, the exact number is not on record here.

Consider `C/C(=C\C(=O)OCCCCCCCCC(=O)O)C[C@@H]1OC[C@H](C[C@@H]2O[C@H]2[C@@H](C)[C@H](C)O)[C@@H](O)[C@H]1O` [Mupirocin, mupirocin], for which the MIC was over 2050 µg/mL in the assay with PAO1 (setting [1]); 2 µg/mL (≈ 3.99 µM) in the assay on BH1CC (setting [2]); 0.03 µg/mL (≈ 0.0599 µM) in the assay on SH1000 (setting [3]); 0.03 µg/mL (≈ 0.0599 µM) with BH48 (setting [4]); 0.06 µg/mL (≈ 0.12 µM) in the assay with USA300 (setting [5]).
As for `CC(C)[C@H](NC(=O)[C@H](CCCCN)NC(=O)[C@H](CCCCN)NC(=O)[C@@H]1CCCN1C(=O)[C@H](CCCCN)NC(=O)[C@@H](NC(=O)[C@@H]1CCCN1C(=O)[C@H](CCCCN)NC(=O)[C@@H](NC(=O)[C@H](CCCCN)NC(=O)[C@H](CCCCN)NC(=O)[C@H](CO)NC(=O)[C@@H]1CCCN1)[C@@H](C)O)C(C)C)C(=O)N[C@@H](C)C(N)=O` [DRGN-1] (H-PSKKTKPVKPKKVA-NH2), the MIC in the assay with PAO1 (PAO1, 18 h) was over 400 µg/mL; in the assay on BH1CC, over 400 µg/mL; with SH1000 (SH1000, 18 h), over 400 µg/mL; against BH48 it was over 400 µg/mL; against USA300 (USA300, 18 h) it was over 400 µg/mL.
Take `CC[C@H](C)[C@H](NC(=O)CNC(=O)[C@H](CCCCN)NC(=O)[C@H](Cc1ccc(O)cc1)NC(=O)[C@H](CS)NC(=O)[C@@H](NC(=O)[C@H](CCCCN)NC(=O)[C@H](Cc1c[nH]c2ccccc12)NC(=O)[C@H](CS)NC(=O)[C@H](Cc1ccccc1)NC(=O)[C@@H](N)CCCNC(=N)N)C(C)C)C(=O)N[C@@H](CS)C(=O)N[C@@H](Cc1ccccc1)C(=O)N[C@@H](CCCCN)C(=O)N[C@@H](CCCCN)C(=O)N[C@@H](CS)C(=O)N[C@@H](CCCCN)C(N)=O` [RP557] (H-RFCWKVCYKGICFKKCK-NH2; N-terminus assumed): the MIC with PAO1 (setting [6]) was found to be 8 µg/mL (≈ 3.74 µM); against BH1CC (setting [7]), 16 µg/mL (≈ 7.48 µM); with SH1000 (setting [8]) it was 16 µg/mL (≈ 7.48 µM); in the assay with BH48 (setting [9]), 16 µg/mL (≈ 7.48 µM); with USA300 (setting [10]) it was 16 µg/mL (≈ 7.48 µM). Also, the “MIC against S. aureus strains” value in the assay on S. aureus strains came out at 16 µg/mL (≈ 7.48 µM).
In the case of `CC[C@H](C)[C@H](NC(=O)[C@H](CCCNC(=N)N)NC(=O)[C@H](Cc1ccccc1)NC(=O)[C@H](CCCNC(=N)N)NC(=O)[C@@H](N)CCCCN)C(=O)N[C@@H](CCCNC(=N)N)C(=O)N[C@H](C(=O)N[C@@H](CCCNC(=N)N)C(=O)N[C@H](C(N)=O)C(C)C)C(C)C` [1,037] (H-KRFRIRVRV-NH2), the MIC in the assay with PAO1 (PAO1, 18 h) worked out at 64 µg/mL (≈ 52.1 µM); against BH1CC it was 128 µg/mL (≈ 104 µM); with SH1000 (SH1000, 18 h), 128 µg/mL (≈ 104 µM); with BH48, 128 µg/mL (≈ 104 µM); against USA300 (USA300, 18 h), 128 µg/mL (≈ 104 µM).
As to `CNC(C)C1CCC(N)C(OC2C(N)CC(N)C(OC3OCC(C)(O)C(NC)C3O)C2O)O1` (stereo not drawn) [Gentamicin, gentamicin], the MIC stood at 1 µg/mL (≈ 2.09 µM) with PAO1 (setting [1]); 32 µg/mL (≈ 67 µM) with BH1CC (setting [2]); 0.25 µg/mL (≈ 0.523 µM) in the assay with SH1000 (setting [3]); 0.25 µg/mL (≈ 0.523 µM) in the assay with BH48 (setting [4]); 0.5 µg/mL (≈ 1.05 µM) in the assay with USA300 (setting [5]).
As for `CCO` [Ethanol, reference compound], the results for the “IC50 (50% cell viability), MTT” value in the assay with HUVEC, in the assay on HaCaT and in the assay with THP-1 were 0.4%, 1.2% and 1%, respectively.
As for `CC(=O)O[C@H]1C[C@@]2(C)[C@@H](C[C@@H](O)[C@H]3[C@@]4(C)CC[C@@H](O)[C@@H](C)[C@@H]4CC[C@@]32C)/C1=C(\CCC=C(C)C)C(=O)O` [Fusidic acid], the MIC in the assay with PAO1 (setting [1]) is over 512 µg/mL; in the assay on BH1CC (setting [2]), 2 µg/mL (≈ 3.87 µM); with SH1000 (setting [3]), 0.06 µg/mL (≈ 0.116 µM); with BH48 (setting [4]) it was 4 µg/mL (≈ 7.74 µM); with USA300 (setting [5]), 0.03 µg/mL (≈ 0.0581 µM).
Turning to `CC[C@H](C)[C@H](NC(=O)[C@H](CCCNC(=N)N)NC(=O)[C@@H](NC(=O)[C@H](C)NC(=O)[C@@H](NC(=O)[C@@H](NC(=O)[C@H](CC(C)C)NC(=O)[C@H](CCCNC(=N)N)NC(=O)[C@@H](N)C(C)C)[C@@H](C)CC)C(C)C)C(C)C)C(=O)N[C@@H](Cc1c[nH]c2ccccc12)C(=O)N[C@@H](CCCNC(=N)N)C(=O)N[C@@H](CCCNC(=N)N)C(N)=O` [IDR-1018] (H-VRLIVAVRIWRR-NH2), the MIC against PAO1 (setting [6]) was found to be 64 µg/mL (≈ 41.7 µM); against BH1CC (setting [7]), 128 µg/mL (≈ 83.3 µM); with SH1000 (setting [8]) it was 64 µg/mL (≈ 41.7 µM); against BH48 (setting [9]), 128 µg/mL (≈ 83.3 µM); in the assay on USA300 (setting [10]), 64 µg/mL (≈ 41.7 µM).

Source of the values: paper PMC12058896, “Potent antimicrobial activity of hydrogel loaded with the antimicrobial peptide, D-Bac8c^2,5 Leu, against monospecies and polymicrobial biofilms of Staphylococcus aureus and Pseudomonas aeruginosa” (Frontiers in Microbiology, 2025).
